Assay results as given in patent US20150125889A1, “IN VITRO DETECTION OF MICROORGANISMS WITH AZOREDUCTASE ACTIVITY” (BIOMÉRIEUX, priority 2012, published 2015).

Assay: Test of reduction of Methyl red by food matrices (Example 3)
Set-up: key to Increase in fluorescence over 24 hours: The symbol “−” means that there is no growth or increase in fluorescence of the medium indicating a reduction of the substrate over 24 hours
Details: for Increase in fluorescence over 24 hours: 35 mg/l of Methyl red in TSB, 250 nm/395 nm, 35° C.
Protocol: Nine food matrices, some of which have high enzymatic activity (for which the use of Tempo®TVC is not recommended), listed in Table VIII, are tested, in a microtitration plate, in the presence of 35 mg/l of Methyl red in TSB medium to which is added an antimicrobial cocktail combining 200 mg/l of chloramphenicol and 6 mg/l of gentamycin to inhibit the growth of bacteria and fungi. The matrices are tested at different concentrations: 1/400, 1/4000 and […]. To do this, 10 g of matrices are weighed out and dispersed by stomaching in 90 ml of Tryptone-salt solution, which corresponds to a 1/10 dilution, from which the test dilutions are made. The reduction of the substrate and the growth of the microorganisms are monitored using an Infinite® M200 Tecan microplate reader at 35° C. over 24 hours. The reduction of the Methyl red is monitored by reading the fluorescence with the wavelength pair 250 nm/395 nm. The potential growth of microorganisms is monitored by reading the absorbance at 660 nm. The symbol “−” means that there is no growth or increase in fluorescence of the medium indicating a reduction of the substrate over 24 hours.

CN(C)c1ccc(/N=N/c2ccccc2C(=O)O)cc1 [Methyl red]
no reduction: reduction of the Methyl red by the food matrix (text on Table IX) (nine food matrices with antimicrobial cocktail, no growth of microorganisms)
−: Increase in fluorescence over 24 hours (Avocado + ATB) | Increase in fluorescence over 24 hours (Brie de Meaux AOC cheese + ATB) | Increase in fluorescence over 24 hours (Fresh tagliatelle + ATB) | Increase in fluorescence over 24 hours (Melon + ATB) | Increase in fluorescence over 24 hours (Microfiltered whole milk + ATB) | Increase in fluorescence over 24 hours (Mussels + ATB) | Increase in fluorescence over 24 hours (Pink shrimps + ATB) | Increase in fluorescence over 24 hours (Raw calf liver + ATB) | Increase in fluorescence over 24 hours (Salami + ATB)
